Assay results reported in patent US7588752B2, “Antimicrobial peptides” (The University of Melbourne, priority 1997, dated 2009).
No end group written: not given here.

Experiments:
[1] = test system: Streptococcus sanguinis (formerly S. sanguis); assay: Antibacterial growth assay in liquid medium, 96 well plates, OD 650 nm; format: cell-based; details: peaks of tryptic hydrolysate of sodium caseinate
Method: Hydrolysis was terminated by the addition of 1M HCl to pH 4.6. The hydrolysate was centrifuged (11,600 g for 10 min) and then filtered through a 0.2 μm PVDF filter before being applied to a 7 μm C8 (Brownlee) reversed-phase column (4.6×220 mm). The sample was eluted using an Applied Biosystems 140 A Solvent Delivery System to generate a stepwise linear gradient from 0-20% B in 2 min followed by 20-45% B in 40 min at a flow rate of 1 ml/min. Eluant A was 0.1% (v/v) TFA in water and eluant B was 80% (v/v) acetronitrile, 0.1% (v/v) TFA in water. The eluant was monitored using an Applied Biosystems 1000S Diode Array detector at a primary wavelength of 215 nm. Peaks were collected and assayed for antimicrobial activity. […] Growth was determined over a 30 hour period after inoculation by measuring the optical density of the cell suspensions at a wavelength of 650 nm (OD650), using a microplate reader (Biorad, model 450). Growth was determined by subtracting the initial reading, taken immediately after inoculation from the final reading (maximum culture OD). […]
The antibacterial assay was conducted in sterile 96 well plates (Becton Dickinson, Melbourne, Australia). […] Growth of the bacterium was determined as the difference between the final and initial Optical Density (OD) 650 nm readings using a microplate reader (BIORAD, model 450, NSW, Australia). […]

[2] = test system: Streptococcus mutans Ingbritt; format: cell-based; details: RP-HPLC of endo Glu-C digest of TCA-soluble UF whey
Method: Peaks were collected and assayed for antimicrobial activity. Antimicrobial assays were carried out in liquid growth medium using sterile 96 well plates, each well having a capacity of 300 μL. The growth medium consisted of Todd Hewit broth (36.4 g/L), Yeast Extract (5.0 g/L) with 100 mmol/L potassium phosphate buffer. Routinely the pH of the growth medium was adjusted to 6.3. An inoculum of approximately 1.5×10^2 cells (Streptococcus sanguis, Streptococcus mutans, Porphyromonas gingivalis) that had been harvested during the exponential phase of growth, was added to each well. The ionophore gramicidin (40 μmol/L final concentration) was added to a series of wells as a negative control. Positive controls contained only the inoculum and the growth medium. Growth was determined over a 30 hour period after inoculation by measuring the optical density of the cell suspensions at a wavelength of 650 nm (OD650), using a microplate reader (Biorad, model 450). Growth was determined by subtracting the initial reading, taken immediately after inoculation from the final reading (maximum culture OD). […]

Klebsiella pneumoniae = details: concentrations as low as 0.1 μM; injected intravenously before lethal infectious challenge; cited from earlier work
Escherichia coli = details: cited from earlier work
Staphylococuus carnosus = details: cited from earlier work

DMPIQAFLLYQQPVLGPVR (bovine) [β-casein (184-202)]
antimicrobial activity against Streptococcus sanguinis [1]: showed activity

AVESTVATLEDSPEVIESPPE [Ser(P)^149 κ-casein A (138-158)]
antimicrobial activity against S. mutans [2]: exhibited antimicrobial activity

TTMPLW (bovine) [αs1-casein (194-199), casein peptide of Migliore-Samour et al. (1989)]
protective effect in mice against Klebsiella pneumoniae infection (Klebsiella pneumoniae): significant protective effect

Ser(P)^149 κ-casein (117-169): tryptic casein peptide, genetic variant not specified ((SEQ ID NO:12) and (SEQ ID NO:14))
antimicrobial activity against Streptococcus sanguinis [1]: showed activity

αs2-casein (fl72-203): antibacterial peptide from bovine αs2-casein released by treating milk with glacial acetic acid (Zucht et al., 1995) (QKFALPQYLKTVYQHQKAMKPWIQPKTKVIPY; UniProt P02663 187-218, looked up, fragment)
inhibition of growth of Escherichia coli (Escherichia coli): inhibit the growth | inhibition of growth of Staphylococuus carnosus (Staphylococuus carnosus): inhibit the growth

PGPIPN (bovine) [β-casein (63-68), casein peptide of Migliore-Samour et al. (1989)]
protective effect in mice against Klebsiella pneumoniae infection (Klebsiella pneumoniae): significant protective effect
